From article PMC9259591, “Irigenin, a novel lead from Iris confusa for management of Helicobacter pylori infection with selective COX-2 and HpIMPDH inhibitory potential” (Scientific Reports, 2022)
Converted amounts (≈) assume the structure as drawn. “And” between values parts separate entries of the source, which are not always exact repeats. Equal entries are not always repeated. Where two headings read alike, the source gives them in different places.

Experiments:
[1] = test system: H. pylori ATCC 700392; test: anti-Helicobacter pylori activity, microwell dilution method with MTT; assay type: cell-based; conditions: for MIC: read-out: MIC (H. pylori)
Experimental: The anti-Helicobacter pylori activity of the PF and NPF as well as the isolated compounds was evaluated against H. pylori ATCC 700392 (type strain, obtained from the American Type Culture Collection unit (ATCC), using microwell dilution method and clarithromycin as standard drug[37]. The detailed procedures were described in the supplementary file.
The anti-Helicobacter pylori activity of the PF and NPF as well as the isolated compounds was evaluated against H. pylori ATCC 700392 (a type strain, obtained from the American Type Culture Collection unit (ATCC), using microwell dilution method and clarithromycin as standard drug ^1. The tested samples were prepared in dimethyl sulfoxide and successive ten twofold dilutions (125- 0.24 µg/mL) were carried out in a 96-well plate. Each microplate well included forty μL of Brain Heart Infusion growth medium and 10% fetal bovine serum (FBS), ten μL of inoculum and fifty μL of the tested sample. The plates were incubated for 3 days, in 5% oxygen, 10% carbon dioxide, 85 % nitrogen atmosphere at 37°C. Forty μL of 3- (4, 5-dimethyl-thiazol-2-yl)- 2,5-diphenyl-tetrazolium bromide (MTT) at a final concentration of 0.5 mg/mL freshly prepared in H2O was added to each well and incubated for 30 min. The bacteria were biologically active when change to purple color was observed ^1. While no change in MTT color indicated inhibition. Solvent control (DMSO) and the standard antibiotic (clarithromycin) were used as negative and positive controls, respectively. The H. pylori inhibition % was calculated using the given formula:
% Inhibition = Abs control – Abs sample × 100 /Abs control.

[2] = test system: RAW 264.7 macrophage cell line (NO); test: nitric oxide (NO) inhibitory activity in lipopolysaccharide-stimulated macrophages; assay type: cell-based, murine; conditions: Mus musculus, RAW264.7; RAW 264.7 cells, 1 µg/mL lipopolysaccharide
Experimental: The detailed procedures were described in the supplementary file.
The cell was incubated at 37 °C in 5% carbon dioxide. RAW 264.7 cells were seeded onto a 96-well plate (1×10^5 cells/well) and incubated for 24 h. […] Followed by incubation, the cells stimulated with 1µg/mL of lipopolysaccharide for another 24 h. The supernatant was gently transferred to new 96-well plates and used for NO determination. L-N 6 - (1-iminoethyl) lysine hydrochloride), is used as standard drug. The absorbance (Abs) was measured in a microplate reader at 540 nm ^3. The percentage inhibition was calculated using the following formula:
Inhibition (%) = 1-[Control-Test] Control × 100.

[3] = biological target: T1, Human inosine-5′-monophosphate dehydrogenase (hIMPDH2) (Homo sapiens, UniProt P12268); test: In vitro hIMPDH2 inhibition assay (NADH absorbance at 340 nm); assay type: biochemical; design: key to hIMPDH2 inhibitory activity: % hIMPDH2 inhibition; conditions: for hIMPDH2 inhibitory activity: in % (unit assumed)
T1 construct: purchased NovoCIB SAS (Lyon, France)
Experimental: Human inosine-5′-monophosphate dehydrogenase (hIMPDH2) was purchased from NovoCIB SAS (Lyon, France). […] The detailed procedures were described in the supplementary file.
Thus, irigenin was selected to test its HpIMPDH inhibitory activity by monitoring NADH production at concentration range of 10–0.078 µM compared to clarithromycin as standard drug. Also, to examine irigenin selectivity toward the bacterial IMPDH, human hIMPDH2 inhibition potential was assayed.
Human inosine-5′-monophosphate dehydrogenase (hIMPDH2) was purchased from NovoCIB SAS (Lyon, France). […] The assay was carried out in 96-well plates (Tarsons, 980040). The reaction buffer consisted of hundred mM KCl, hundred mM Tris–HCl (pH 8.6), and five mM DTT, 4% v/v DMSO with or without the tested compound and 0.15 mU of purified hIMPDH2 enzyme per well (from 1.5 mg/mL stock concentration). The enzyme stock solution final volume was 2 μL per well, which was insignificant to cause final assay buffer composition change. Addition of (substrate buffer) 0.2 mM of IMP and 0.2 mM of NAD^+ initiated the assay, then it was allowed to proceed for 30 min at 37 °C. The formed NADH was measured by reading the absorbance at 340 nm. […] The concentration of the tested sample leading to 50% hIMPDH2 inhibition (IC50) was estimated.

[4] = biological target: T2, ovine COX-1 (Ovis aries, UniProt P05979); test: COX-1 inhibitory activity, colourimetric COX inhibitor screening assay kit; assay type: biochemical; conditions: ovine COX-1; read-out: IC50 (COX-1)
T2 construct: purchased
Experimental: The inhibitory COX activity was assayed colourimetrically by examining the inhibition of the ovine COX-1 and human recombinant COX-2 enzymes as described by George et al.[38], using a COX inhibitor screening assay kit. The detailed procedures were described in the supplementary file.
The inhibitory COX activity was assayed colourimetrically by examining the inhibition of the ovine COX-1 and human recombinant COX-2 enzymes as described by George et al. ^2, using a COX inhibitory screening assay kit. This assay determines the COX peroxidase activity by monitoring the appearance of N,N,N',N'-tetramethyl-p-phenylenediamine (TMPD). Assay buffer (150 μL 0.1 M Tris–HCl pH 8.0), 10 μL heme and 10μL enzyme (COX-1 or COX-2) were added in each well. Ten μL of each tested sample concentration was added to each well and incubated for 15 minutes at 37°C. After incubation, 20 μL of TMPD was added to each well. For initiating the reaction, 10 μL 10 mM arachidonic acid was added and the plates were further incubated for another 2 minutes at 37°C. For terminating the reaction, 50 μL 1 N HCl and saturated stannous chloride were added.
Reaction mixture containing assay buffer and heme acted as the blank and a mixture with either COX-1 or COX-2 assay buffer and heme acted as the 100% initial activity (IA). […] The absorbances of oxidized TMPD (blue colour) were read in ELISA plate reader at 590 nm. The % inhibition was calculated using the following formula:
COX % Inhibition= [(100%IA−Inhibitor)/ 100% IA x 100]. Where, IA: 100% initial activity.
The concentration at which the tested sample produces 50% inhibition of COX-1 and/or COX-2 (IC50) was determined. The selectivity index (SI) was calculated also as IC50 (COX-1)/ (COX-2).

T2 sequence (P05979 25-600): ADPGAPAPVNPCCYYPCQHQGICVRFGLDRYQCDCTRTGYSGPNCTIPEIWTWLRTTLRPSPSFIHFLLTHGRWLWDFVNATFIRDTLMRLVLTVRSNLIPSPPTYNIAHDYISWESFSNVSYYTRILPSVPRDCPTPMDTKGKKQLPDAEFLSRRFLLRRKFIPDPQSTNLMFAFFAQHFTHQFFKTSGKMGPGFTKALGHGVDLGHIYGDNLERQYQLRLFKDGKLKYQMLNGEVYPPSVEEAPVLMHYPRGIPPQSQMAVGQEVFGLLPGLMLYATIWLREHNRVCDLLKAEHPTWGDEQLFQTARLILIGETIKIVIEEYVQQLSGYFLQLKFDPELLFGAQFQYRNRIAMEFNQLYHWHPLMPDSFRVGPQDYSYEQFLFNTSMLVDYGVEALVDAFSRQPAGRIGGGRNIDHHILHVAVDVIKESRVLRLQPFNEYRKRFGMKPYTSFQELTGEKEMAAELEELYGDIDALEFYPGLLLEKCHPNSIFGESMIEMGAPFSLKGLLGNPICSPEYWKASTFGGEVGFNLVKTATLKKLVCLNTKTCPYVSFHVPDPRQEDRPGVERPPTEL

Compound: COc1cc(-c2coc3cc(O)c(OC)c(O)c3c2=O)cc(O)c1OC [Irigenin (P3), 3′,5,7-trihydroxy-4′,5′,6 trimethoxyisoflavone]
- MIC ([1]; Helicobacter pylori, ATCC700392): 3.9 µg/mL and 10.8 µM
- MIC (H. pylori) ([1]; concentration required for 100% inhibition, H. pylori ATCC 700392, ND = not detected): 3.90 µg/mL (≈ 10.8 µM)
- MIC ([1]; concentration required for 100% inhibition, H. pylori ATCC 700392): 10.82 µM (≈ 3.9 µg/mL)
- IC50 [2]: 42.5 ± 1.8 µM
- IC50 [3]: > 10 µM
- hIMPDH2 inhibitory activity ([3]; sample conc. 0.078 (range 10–0.078 µM)): 0.00
- hIMPDH2 inhibitory activity ([3]; sample conc. 0.156 (range 10–0.078 µM)): 0.00
- hIMPDH2 inhibitory activity ([3]; sample conc. 0.313 (range 10–0.078 µM)): 0.00
- hIMPDH2 inhibitory activity ([3]; sample conc. 0.625 (range 10–0.078 µM)): 0.00
- hIMPDH2 inhibitory activity ([3]; sample conc. 1.25 (range 10–0.078 µM)): 0.00
- hIMPDH2 inhibitory activity ([3]; sample conc. 2.5 (range 10–0.078 µM)): 4.81 ± 0.91
- hIMPDH2 inhibitory activity ([3]; sample conc. 5 (range 10–0.078 µM)): 10.36 ± 0.72
- hIMPDH2 inhibitory activity ([3]; sample conc. 10 (range 10–0.078 µM)): 22.68 ± 1.00
- IC50 [4]: 35.2 ± 1.4 µM
